The values that follow come from patent US20240376085A1 (Janssen Pharmaceutica NV, priority 2021, published 2024).

SMILES strings stand for the structures. A value given as a limit tells only on which side of the number the result lay.

The test system of assay [1] is IL-17A-induced G-CSF production in human normal keratinocyte (NHK). The assay is described as follows: NHK assay: IL-17A-induced G-CSF production in normal human keratinocytes. It counts as cell-based. The settings on record: 24 h, IL-17A 5 ng/mL, average if tested more than once. The method, boiled down: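 Stimulus rhIL-17A 5 ng/mL final, premixed 1 h rt with compound; adult NHK, 5% FBS, 0.2% DMSO. Viability by CellTiter-Glo vs DMSO.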

The next assay has as its target T1, IL-17A : IL-17RA binding (Homo sapiens, UniProt Q16552, K93Q).
T1 construct: Name: IL-17A-Flag
The experiment in a line: IL-17A(FLAG-tagged):IL-17RA(His-tagged) binding disruption Eu-HTRF assay, Protocol 1. The settings on record: FLAG-IL-17A 2.5 nM at 2x final concentration; average if tested more than once. A digest of the protocol: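 IC50 came from a one-site competition fit of the acceptor/donor (665/620 nm) HTRF ratio. His-tagged IL-17RA, Eu-anti-FLAG and D2-anti-His were added after a 1 h rt compound preincubation with FLAG-tagged IL-17A dimer in PBS/0.01% Triton X-100, followed by 2 h at rt before reading.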

T1 sequence (Q16552 with tags, fused parts or gaps K93Q): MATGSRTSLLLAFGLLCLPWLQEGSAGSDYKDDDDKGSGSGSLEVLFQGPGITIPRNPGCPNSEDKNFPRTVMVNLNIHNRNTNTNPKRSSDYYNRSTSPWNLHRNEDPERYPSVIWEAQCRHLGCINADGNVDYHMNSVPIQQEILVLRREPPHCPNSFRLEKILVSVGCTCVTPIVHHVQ

On to `Cc1nonc1C(=O)N[C@H](c1nc2ccc([C@H](NC(=O)CC3CC(F)(F)C3)C3CC3)cc2[nH]1)[C@H]1C[C@@H]2[C@H](C1)C2(F)F` [Example 240, N—((S)-(6-((R)-Cyclopropyl(2-(3,3-difluorocyclobutyl)acetamido)methyl)-1H-benzo[d]imidazol-2-yl)((1R,3r,5S)-6,6-difluorobicyclo[3.1.0]hexan-3-yl)methyl)-4-methyl-1,2,5-oxadiazole-3-carboxamide], for which the concentration for half-maximal inhibition (IC50) in assay [1] (Homo sapiens, Keratinocyte) is more than 100 nM; at IL-17A : IL-17RA binding it was less than 50 nM.

On to `CC(CC(=O)N[C@H](C)c1ccc2nc([C@@H](NC(=O)c3ccnn3CCC(F)(F)F)C3CCC(F)(F)CC3)[nH]c2c1)C(F)(F)F` (single isomer, unassigned) [Example 138, N—((S)-(4,4-Difluorocyclohexyl)(6-((R)-1-((S*)-4,4,4-trifluoro-3-methylbutanamido)ethyl)-1H-benzo[d]imidazol-2-yl)methyl)-1-(3,3,3-trifluoropropyl)-1H-pyrazole-5-carboxamide], for which the IC50 in assay [1] is 50 to 100 nM; at IL-17A : IL-17RA binding it was more than 100 nM.

As for `Cc1nonc1C(=O)N[C@H](c1nc2cc([C@@H](C)NC(=O)CCC(F)(F)F)ccc2[nH]1)[C@@H]1CCCC(F)(F)C1` [Example 264, N—((S)—((R)-3,3-Difluorocyclohexyl)(5-((R)-1-(4,4,4-trifluorobutanamido)ethyl)-1H-benzo[d]imidazol-2-yl)methyl)-4-methyl-1,2,5-oxadiazole-3-carboxamide], the IC50 was more than 100 nM in assay [1] (Homo sapiens, Keratinocyte) and less than 50 nM on IL-17A : IL-17RA binding.

For the molecule `Cc1nonc1C(=O)N[C@H](c1nc2ccc([C@H](NC(=O)CC3CC(F)(F)C3)C3CC3)cc2[nH]1)C1CCOC(C)(C)C1` (single isomer, unassigned) [Example 174, N—((S)-(6-((R)-Cyclopropyl(2-(3,3-difluorocyclobutyl)acetamido)methyl)-1H-benzo[d]imidazol-2-yl)((R*)-2,2-dimethyltetrahydro-2H-pyran-4-yl)methyl)-4-methyl-1,2,5-oxadiazole-3-carboxamide], the IC50 in assay [1] is 50 to 100 nM; at IL-17A : IL-17RA binding, more than 100 nM.

Turning to `C[C@@H](NC(=O)CCC(F)(F)F)c1ccc2nc([C@@H](NC(=O)c3cnnn3CCC(F)F)C3CCC(F)(F)CC3)[nH]c2c1` [Example 74, N—((S)-(4,4-Difluorocyclohexyl)(6-((R)-1-(4,4,4-trifluorobutanamido)ethyl)-1H-benzo[d]imidazol-2-yl)methyl)-1-(3,3-difluoropropyl)-1H-1,2,3-triazole-5-carboxamide], the IC50 in assay [1] (Homo sapiens, Keratinocyte) was more than 100 nM; at IL-17A : IL-17RA binding it was more than 100 nM.

On to `CC(C)n1nccc1C(=O)NC(COC(C)(C)C(F)(F)F)c1nc2ccc([C@H](NC(=O)CC3CC(F)(F)C3)C3CC3)cc2[nH]1` (single isomer, unassigned) [Example 162, N—((S*)-1-(6-((R)-Cyclopropyl(2-(3,3-difluorocyclobutyl)acetamido)methyl)-1H-benzo[d]imidazol-2-yl)-2-((1,1,1-trifluoro-2-methylpropan-2-yl)oxy)ethyl)-1-isopropyl-1H-pyrazole-5-carboxamide], for which the concentration for half-maximal inhibition (IC50) in assay [1] (Homo sapiens, Keratinocyte) is more than 100 nM; on IL-17A : IL-17RA binding it was more than 100 nM.

For the molecule `C[C@@H](NC(=O)CC(C(F)(F)F)C(F)(F)F)c1ccc2[nH]c([C@@H](NC(=O)c3cc(F)ccc3F)C3CCC(F)(F)CC3)nc2c1` [Example 130, N—((S)-(4,4-Difluorocyclohexyl)(6-((R)-1-(4,4,4-trifluoro-3-(trifluoromethyl)butanamido)ethyl)-1H-benzo[d]imidazol-2-yl)methyl)-2,5-difluorobenzamide], the IC50 in assay [1] (Homo sapiens, Keratinocyte) was more than 100 nM; at IL-17A : IL-17RA binding, more than 100 nM.

As to `C[C@@H](NC(=O)CCC(F)(F)F)c1ccc2[nH]c([C@@H](NC(=O)C3(F)CC3)C3CCC(F)(F)CC3)nc2c1` [Example 96, N—((S)-(4,4-Difluorocyclohexyl)(5-((R)-1-(4,4,4-trifluorobutanamido)ethyl)-1H-benzo[d]imidazol-2-yl)methyl)-1-fluorocyclopropane-1-carboxamide], the IC50 in assay [1] (Homo sapiens, Keratinocyte) was more than 100 nM; at IL-17A : IL-17RA binding, more than 100 nM.

Turning to `Cc1nonc1C(=O)N[C@@H](CC1(C(F)(F)F)CC1)c1nc2ccc([C@H](NC(=O)CC3CC(F)(F)C3)C3CC3)cc2[nH]1` [Example 242, N—((S)-1-(6-((R)-Cyclopropyl(2-(3,3-difluorocyclobutyl)acetamido)methyl)-1H-benzo[d]imidazol-2-yl)-2-(1-(trifluoromethyl)cyclopropyl)ethyl)-4-methyl-1,2,5-oxadiazole-3-carboxamide], the IC50 in assay [1] (Homo sapiens, Keratinocyte) was more than 100 nM; at IL-17A : IL-17RA binding, more than 100 nM.

Take `Cn1nccc1C(=O)N[C@H](c1nc2cc(C(CC3CCC3)NC(=O)CCC(F)(F)F)ccc2[nH]1)C1CCC(F)(F)CC1` (single isomer, unassigned) [Example 46, N—((S)-(5-((S*)-2-Cyclobutyl-1-(4,4,4-trifluorobutanamido)ethyl)-1H-benzo[d]imidazol-2-yl)(4,4-difluorocyclohexyl)methyl)-1-methyl-1H-pyrazole-5-carboxamide]: the half-inhibitory concentration (IC50) is more than 100 nM in assay [1] (Homo sapiens, Keratinocyte) and more than 100 nM on IL-17A : IL-17RA binding.

Take `CC(C)n1nccc1C(=O)N[C@@H](c1nc2ccc([C@H](NC(=O)CC3CC(F)(F)C3)C3CC3)cc2[nH]1)[C@@H]1CCCCO1` (relative stereo) [Example 251, N—((S*)-(6-((R)-Cyclopropyl(2-(3,3-difluorocyclobutyl)acetamido)methyl)-1H-benzo[d]imidazol-2-yl)((S*)-tetrahydro-2H-pyran-2-yl)methyl)-1-isopropyl-1H-pyrazole-5-carboxamide]: the IC50 in assay [1] (Homo sapiens, Keratinocyte) was more than 100 nM; on IL-17A : IL-17RA binding it was more than 100 nM.

Turning to `CC(C)(C[C@H](NC(=O)c1nonc1C1CC1)c1nc2ccc([C@H](NC(=O)CC3CC(F)(F)C3)C3CC3)cc2[nH]1)C(F)(F)F` [Example 178, 4-Cyclopropyl-N—((S)-1-(6-((R)-cyclopropyl(2-(3,3-difluorocyclobutyl)acetamido)methyl)-1H-benzo[d]imidazol-2-yl)-4,4,4-trifluoro-3,3-dimethylbutyl)-1,2,5-oxadiazole-3-carboxamide], the IC50 in assay [1] (Homo sapiens, Keratinocyte) is less than 50 nM; on IL-17A : IL-17RA binding it was less than 50 nM.

With `Cc1nonc1C(=O)N[C@H](c1nc2cc([C@H](NC(=O)CC(C)C(F)(F)F)C3CC3)ccc2[nH]1)[C@@H]1CCCC(F)(F)C1` (single isomer, unassigned) [Example 259, N—((S)-(5-((R)-Cyclopropyl((S*)-4,4,4-trifluoro-3-methylbutanamido)methyl)-1H-benzo[d]imidazol-2-yl)((R)-3,3-difluorocyclohexyl)methyl)-4-methyl-1,2,5-oxadiazole-3-carboxamide], the IC50 (in assay [1]; at IL-17A : IL-17RA binding) was 50 to 100 nM each time.

Regarding `C[C@@H](NC(=O)CCC(F)(F)F)c1ccc2[nH]c([C@@H](NC(=O)c3cnnn3CC3CC3)C3CCC(F)(F)CC3)nc2c1` [Example 9, 3-(Cyclopropylmethyl)-N—[(S)-(4,4-difluorocyclohexyl)-[6-[(1R)-1-(4,4,4-trifluorobutanoylamino)ethyl]-1H-benzimidazol-2-yl]methyl]triazole-4-carboxamide], the IC50 in assay [1] (Homo sapiens, Keratinocyte) was more than 100 nM; at IL-17A : IL-17RA binding, more than 100 nM.

As for `Cc1nonc1C(=O)N[C@H](c1nc2ccc([C@H](NC(=O)CC3CC(F)(F)C3)C3CC3)cc2[nH]1)C1CCC2(CC1)CC2` (stereo partly drawn) [Example 169, N—((S)-(6-((R)-Cyclopropyl(2-(3,3-difluorocyclobutyl)acetamido)methyl)-1H-benzo[d]imidazol-2-yl)(spiro[2.5]octan-6-yl)methyl)-4-methyl-1,2,5-oxadiazole-3-carboxamide], the IC50 is less than 50 nM in assay [1] (Homo sapiens, Keratinocyte) and less than 50 nM on IL-17A : IL-17RA binding.

For the molecule `C[C@H](NC(=O)CCC(F)(F)F)c1ccc2[nH]c([C@@H](NC(=O)c3ccnn3CCC(F)(F)F)C3CCC(F)(F)CC3)nc2c1` [Example 124, N—((S)-(4,4-Difluorocyclohexyl)(5-((S)-1-(4,4,4-trifluorobutanamido)ethyl)-1H-benzo[d]imidazol-2-yl)methyl)-1-(3,3,3-trifluoropropyl)-1H-pyrazole-5-carboxamide], the IC50 is more than 100 nM in assay [1] (Homo sapiens, Keratinocyte) and more than 100 nM at IL-17A : IL-17RA binding.

In the case of `COCCn1cc(C(=O)N[C@H](c2nc3cc([C@@H](C)NC(=O)CCC(F)(F)F)ccc3[nH]2)C2CCC(F)(F)CC2)nn1` [Example 16, N—[(S)-(4,4-Difluorocyclohexyl)-[6-[(1R)-1-(4,4,4-trifluorobutanoylamino)ethyl]-1H-benzimidazol-2-yl]methyl]-1-(2-methoxyethyl)triazole-4-carboxamide], the IC50 in assay [1] (Homo sapiens, Keratinocyte) was more than 100 nM; on IL-17A : IL-17RA binding it was more than 100 nM.

In the case of `C[C@@H](NC(=O)CCC(F)(F)F)c1ccc2[nH]c([C@@H](NC(=O)c3csc(CCC(F)(F)F)n3)C3CCC(F)(F)CC3)nc2c1` [Example 224, N—((S)-(4,4-Difluorocyclohexyl)(5-((R)-1-(4,4,4-trifluorobutanamido)ethyl)-1H-benzo[d]imidazol-2-yl)methyl)-2-(3,3,3-trifluoropropyl)thiazole-4-carboxamide], the IC50 in assay [1] (Homo sapiens, Keratinocyte) was more than 100 nM; at IL-17A : IL-17RA binding, more than 100 nM.

`C[C@@H](NC(=O)CCC(F)(F)F)c1ccc2[nH]c([C@@H](NC(=O)c3cnnn3CC3CC(F)(F)C3(F)F)C3CCC(F)(F)CC3)nc2c1` (stereo partly drawn) [Example 82, N—((S)-(4,4-Difluorocyclohexyl)(5-((R)-1-(4,4,4-trifluorobutanamido)ethyl)-1H-benzo[d]imidazol-2-yl)methyl)-1-((2,2,3,3-tetrafluorocyclobutyl)methyl)-1H-1,2,3-triazole-5-carboxamide]: the IC50 in assay [1] (Homo sapiens, Keratinocyte) is more than 100 nM; on IL-17A : IL-17RA binding, more than 100 nM.
